Reference: patent US5648373A, “CoA-IT and PAF inhibitors” (SmithKline Beecham Corporation, priority 1992, dated 1997)
Entries after “also recorded” stand apart in the source; their conditions may differ.

Columns and labels:
[1] = test system: TPA-induced inflammation in the mouse ear; test: TPA-induced inflammation of the mouse ear (assay d): ear thickness, myeloperoxidase; type: in vivo; conditions: topical TPA
Description: The ability of compounds that inhibit CoA-IT to affect in vivo inflammatory responses was assessed. Inflammatory responses were induced in the mouse ear by the topical application of a pro-inflammatory agent, such as 12-0-tetradecanoylphorbol 13-acetate. This produced an edematous response, as measured by increases in ear thickness, as well as increased inflammatory cellular infiltrate, as measured by increases in myeloperoxidase activity as described in the methods.
Male Balb/c inbred mice were obtained from Charle River Breeding Laboratories (Kingston, N.Y.). Within a single experiment mice (22-25 g) were age-matched. These in vivo experiments typically involved use of 5-6 animals/group.
TPA (12-0-tetradecanoylphorbol 13-acetate) (Sigma Chemical Company) in acetone (4 μg/20 μl) was applied to the inner and outer surfaces of the left ear of BALB/c male mice. The thickness of both ears was then measured with a dial micrometer (Mitutoyo, Japan) at both 2 and 4 hours after treatment, and the data expressed as the change in thickness (10-^3 cm) between treated and untreated ears. […] After measuring the edema, the inflammed left ears were removed and stored at -70° C. until they were assayed for MPO (myeloperoxidase) activity where appropriate. […]

[2] = test system: mouse bone marrow-derived mast cells; test: Arachidonate content of cellular phospholipids of mast cells (method e); type: cell-based
Description: As treatment of intact cells blocks the movement of arachidonate into specific cellular phospholipids, it followed that prolonged treatment of inflammatory cells with CoA-IT inhibitors could deplete their large endogenous pools of arachidonate within phospholipids. To determine that CoA-IT inhibition can alter the amount of arachidonate within cellular phospholipids, mouse bone marrow-derived mast cells were treated with Compound 3 for 24 hours and the mass of arachidonate within total cellular phospholipids was determined. Compound 3 induced a concentration-dependentreduction in the total cellular arachidonate within mast cells, with greater than 75% reduction apparent at 20 μM. […]
The following is the method for assessing the ability of a compound to alter arachidonate content of cellular phospholipids, which can be generalized for any desired cell. […] The radioactive and mole quantities of arachidonate in complex lipids are determined. At this point, cellular lipid extracts are treated with KOH (0.5M) to remove fatty acids from complex lipids (phospholipids) and the quantities of arachidonate in these extracts can then be determined by various methods, including gas chromatography and mass spectrometry (Chilton [Methods Enzymol. (1990) 187, 157-166]).

human neutrophils [3] = test: Assay for production of platelet-activating factor (assay c), A23187-challenged neutrophils; type: cell-based
Description: Blood was obtained from normal humans and neutrophils were isolated as described for the arachidonic acid release assay, above. The final leukocyte preparation was of greater than 95% purity and viability.
Neutrophils were suspended in PBS at concentrations of 5 to 20×10^6 cells per ml. Cells were added to test tubes and treated with the desired compounds for 5 to 10 minutes, then challenged with calcium ionophore A23187, 2 μM and 20-30 μCi of [^3 H]acetic acid (NEN-Dupont, Boston, Mass.), or the vehicle of PBS with 0.25-1 mg/ml […]. After 5 to 20 minutes, the reactions were terminated by addition of an equal volume of chloroform:methanol (1:2, v/v) to the samples and the lipids were extracted by addition of equal volumes of chloroform and distilled water. The samples were vortexed and centrifuged at high speed and the chloroform layer removed to a clean tube.
The chloroform from each tube was evaporated to dryness and the material suspended in a small volume of chloroform or chloroform:methanol (25-100 μl) and the total material spotted on a Silica TLC plate. The plates were developed in chloroform/methanol/acetic acid/water (50:25:8:4, v/v) visualized by radioscanning (Bioscan) and the product, [^3 H]PAF, was scraped and quantified by liquid scintillation spectroscopy. With this TLC system, the Rf value for a synthetic standard of PAF was approximately 0.33.

human neutrophils [4] = test: Arachidonic acid release assay (assay b), A23187-challenged neutrophils; type: cell-based
Description: Human neutrophils were obtained in the laboratory using three different methods. One method used leukophoresis packs from normal humans and neutrophils were isolated using the histopaque-1077 technique. The blood was centrifuged at 300× g for 10 minutes. The cell pellets were resuspended in PBS composed of 137 mM NaCI, 8.8 mM Na2HPO4, 1.5 mM KH2PO4, 2.7 mM KCI (Dulbecco's Gibco Laboratories, Long Island, N.Y.) and layered over histopaque-1077 (Sigma, St. Louis, Mo.). The pellets were collected after centrifugation (300× g for 30 minutes) and washed once in PBS. The cell pellets were exposed briefly to dionized water to Iyse any erythrocytes. The remaining cells were collected by centrifugation, suspended in PBS, counted and identified after cytospinning and staining. The final leukocyte preparation was of greater than 95% purity and viability.
The second method isolated human neutrophils from fresh heparinized normal blood using the Histopaque-1077 technique. […] The remaining cells were collected by centrifugation, suspended in PBS, counted and identified after cytospinning and staining. […]
The third method isolated human neutrophils from freshly drawn heparinized normal blood using the Percoll technique. […] The neutrophils were suspended in PBS, counted and identified after cytospinning and staining. […]

intact human neutrophils = test: Movement of [3H]arachidonate into 1-ether-linked phospholipids in intact non-stimulated neutrophils (method e); type: cell-based; conditions: various concentrations, 2 hours, no cellular stimulation
Description: CoA-IT activity can also be measured in intact cells by following the movement of a pulse of [^3 H]arachidonate as it moves into the "pool 2" phospholipids (1-alkyl and 1-alkenyl phospholipids) in inflammatory cells. These specific studies were performed in intact human neutrophils, which contain CoA-IT activity and transfer arachidonate into 1-alkyl and 1-alkenyl phospholipids. To determine the effects of Compound 3 on this transfer of arachidonate, neutrophils were exposed briefly to [^3 H]arachidonic acid to allow incorporation of the label into 1-acyl phospholipids, treated with various concentrations of Compound 3 and the movement of [^3 H]arachidonate between phospholipid subclasses assessed over the subsequent 2 hours in the absence of cellular stimulation.
Measurement of the effect of CoA-IT inhibitors on the transfer of [^3 H]arachidonate into 1-ether phospholipids in non-stimulated inflammatory cells can be accomplished by general application of the following specific method. Human neutrophils were isolated and resuspended (5×10^7 /ml) in Hanks Balanced Salt Solution (HBSS; Gibco). […] The phospholipid subclasses were separated by TLC in benzene/hexane/ethyl ether (50:45:4, v/v), located by image analysis (Bioscan) and the amount of radioactivity in each class was determined by zonal scraping and liquid scintillation counting.

Question: Which “anti-inflammatory effect in vivo (TPA-induced mouse ear inflammation)” value ([1]; listed as Example 3) does the source give for `CCOP(=O)(CCCCCCCn1c(-c2ccccc2)c(-c2ccccc2)n(-c2ccccc2)c1=O)OCC` [Compound 3, Diethyl 7-(3-4-5-triphenyl-2-oxo-2-3-dihydroimidazol-1-yl)heptane phosphonate] here?
Answer: positive inhibition; also recorded: anti-inflammatory responses

Question: What about the “anti-inflammatory effect in vivo (TPA-induced mouse ear inflammation)” value ([1]; listed as compound 3) of the same compound?
Answer: anti-inflammatory effect

Question: What about the “loss of arachidonate from all major phospholipid classes of the mast cell” value ([2]; 24 hours, various concentrations) of the same compound?
Answer: concentration-dependent loss

Question: What about the “loss in the mass of 18:0, 18:1, 18:2 from PI, PE and PC” value ([2]; mast cells) of the same compound?
Answer: no loss

Question: And the “inhibition of PAF production” value (human neutrophils [3])?
Answer: completely and in a concentration dependent fashion; also recorded: inhibition

Question: And the “inhibition of free arachidonic acid release” value (human neutrophils [4])?
Answer: completely and in a concentration dependent fashion; also recorded: inhibition

Question: What about the “movement of [3H]arachidonate into 1-ether-linked phospholipids, 1-alkyl PC and 1-alkenyl PE” value (intact human neutrophils) of the same compound?
Answer: concentration-dependent blockade; also recorded: completely block

Question: And the “movement of [3H]arachidonate into 1-ether-linked phospholipids, 1-alkyl PC and 1-alkenyl PE” value (intact human neutrophils; listed as Example 3)?
Answer: concentration-dependent blockade
